# Reference: patent US20100240656A1, “COMPOUNDS AS HSP90 INHIBITORS” (ORYZON GENOMICS, S.A., priority 2007, published 2010)
# How the values were obtained:
# [1] = test system: A-549; assay: Cell proliferation by MTT method, A-549; assay type: cell-based; details: Homo sapiens
# Description: The objective of this study was to determine the influence of the compounds on cell proliferation of K-562, A-549, MCF-7, HeLa, WI-38 by MTT method. The compounds were tested over a three-fold dilution series in triplicate for the determination of EC50 of their influence on cell proliferation.
# The assay is based on the cleavage of the yellow tetrazolium salt MTT into purple formazan by metabolically active cells. The MTT formazan crystals are insoluble in aqueous solution, but may be solubilized by adding the 10% SDS, then incubating the plates overnight in a humidified atmosphere (e.g., 37° C., 5% CO2). The solubilized formazan product can be photometrically quantitated using Tecan reader. An increase in the number of living cells results in an increase of total metabolic activity, which leads to a stronger color formation.
# EC50 values are defined as the compound concentration at which 50% of reaction product is formed.
# Test compounds were dissolved to 10 mM in 100% DMSO.
# In the day of the experiment cells were seeded into all wells of 96-well plates. Serial dilution of compounds was performed in a separate 96-well plate at 20 times final assay concentration in cell culture medium (DMEM with 10% Fetal Bovine Serum). 5 μl of compound was transferred to 96-well plate containing seeded cells in cell culture medium (final total volume=100 μl). Cells were cultured in the presence of the respective test substances in the 96-well plate at 37° C. in a humidified 5% CO2 incubator for a certain period of time (24, 72 or 120 hours). Then 5 μL of thiazolyl blue tetrazolium bromide (MTT) 5 mg/mL was added to the cells and the cells were reincubated 4 hours in a humidified 5% CO2 incubator. Then 10% SDS was added into the each well. The reaction product was quantified by measuring the absorbance at 568 nm using a scanning multiwell spectrophotometer Tecan. The developed color and thereby the absorbance values directly correlate to the number of the living cells.
# The data were analyzed using Microsoft Excel 2000, GraphPad Prism 3.03.
# K 562 (human, chronic myelongenous leukemia), A 549 (human, lung carcinoma), MCF-7 (human, breast adenocarcinoma), Hela (human, cervix, carcinoma, epitheloid), WI-38 (human, embryonic lung)
# [2] = test system: HCT-116; assay: Cell growth inhibition by AlamarBlue method, HCT-116; assay type: cell-based; details: Homo sapiens; HCT-116, 72 hours; read-out: Cell growth inhibition values (EC50) obtained with AlamarBlue method
# Description: The human colon cancer cell line HCT-116 and the human breast cell lines MCF-7 and SKBr3 were from the American Type Culture Collection (ATCC; CCL-247, HTB-22 and HTB-30, respectively).
# The HCT-116 and SKBr3 cell lines were maintained in DMEM GlutaMAX (Invitrogen) supplemented with 10% fetal calf serum and the MCF-7 cell line was maintained in RPMI1640 GlutaMAX (Invitrogen) containing 1 mM sodium pyruvate and 10% fetal calf serum. Cells were grown in a humidified incubator at 37° C. in 5% CO2
# Cells were plated in 96-well plates (Costar, 3596) at a density of 6000 cells/well in 50 μL medium 24 h before addition of the compounds. Compounds were then added in 8 concentrations, each in triplicate (dilution series of 1 to 3). To do so, a compound-dilution plate at 200× the screening concentrations was prepared in DMSO 100% (Sigma, 154938). Then, 1.7 μL of the 200× diluted compounds were transferred to a new plate and 170 μL of media were added and mixed with the pipette (plate at 2×). Columns 11 and 12 of this plate (controls) were filled with 1% DMSO in cell media (i.e. 1.7 μL DMSO and 170 μL cell media). Finally, 50 μL of this intermediate plate at 2× were transferred to the plate containing the seeded cells and slowly shaken manually. Cells were grown as described above. AlamarBlue viability assay (Biosource, Invitrogen, DAL1100) was performed 72 hours later following manufacturer's protocol. In brief, AlamarBlue diluted in media was added to cells to have a 5% solution (a 2× solution was prepared in media and 100 μL of this solution were transferred to each well, i.e. final volume of 200 μL). Cells were incubated at 37° C., 3 hours and at room temperature for an additional 30 min. Cells with no compound and, cells with no compound and lysed with triton X-100 (30 μL/well added 10 min before treatment with AlamarBlue) were used as controls (6 replicates of each). Fluorescence was monitored at 530 nm excitation and 590 nm emission wavelengths. Results were quantified using ELx800 Universal Microplate Reader (Bio-Tek Instruments, Inc.). EC50 were calculated as the dose of compound required to inhibit cell growth by 50%.
# [3] = A549, 24 h, A 549, incubation 1 day
# [4] = A549, 72 h, A 549, incubation 3 days
# [5] = A549, 120 h, A 549, incubation 5 days
"EC50 [1, 3] [µM]","EC50 [1, 4] [µM]","EC50 [1, 5] [µM]",EC50 [2] [µM],SMILES
> 100,24.1,14.9,23.7,"NCCCCCn1c(Sc2cc3c(cc2I)OCO3)nc(C(N)=O)c1N [Example 6, 5-amino-1-(5-amino-pentyl)-2-(6-iodo-benzo[1,3]dioxol-5-ylsulfanyl)-1H-imidazole-4-carboxamide]"
> 100,13.3,16.2,18,"CCCCn1c(Sc2cc3c(cc2I)OCO3)nc(C(N)=O)c1N [Example 10, 5-amino-1-butyl-2-(6-iodo-benzo[1,3]dioxol-5-ylsulfanyl)-1H-imidazole-4-carboxamide]"
